Reference: US8785471B2, “Pharmaceutical composition containing ferulic acid and matrine compounds, the preparation and the use thereof” (Qingdao Qiyuan Bio-Technologies Co., Ltd., priority 2008, dated 2014)
Marks after values point to notes of the source that are not given here.

Experiments:
rats = test: Alzheimer's disease model rats, learning and memorizing ability in jumping tests; assay type: in vivo; settings: intragastric 50 μg/kg, 7 days, mean ± SD
Method: (§1) Animal grouping, modeling and administration: 57 female Wistar rats (15 month old, 300-450 g, from animal center of Qingdao Institute for Drug Control, fed under normal conditions and natural light with unlimited drink and food) were randomly separated into 6 groups. Rats in normal control group were intraperitoneal injected with physiological saline for 6 weeks and injected physiological saline into the meynert nucleus basalis. Rats in modeling control group were injected intraperitoneally with D-galactose (48 mg/kg/d) for 6 weeks and injected with ibotenic acid into the meynert nucleus basalis. […] The rats in the normal and modeling control groups were intragastrically administrated with physiological saline for consecutive 7 days. 1 hour after the last administration, the learning ability of all the rats; was evaluated. Then, the rats were anesthetized with Pentobarbital. 5 ml blood was collected from abdominal aorta. Immediately the cortex tissue was collected and homogenated with physiological saline into 10% (WN). The AChE activity in cortex tissue and blood was measured according to the reagent kit instructions. • 3. Measurement: testing the memory ability of rats: the rats were placed in an electric box with an escaping platform for 3 minutes to get used to the new environments. The box was then connected to 50V AC. Upon being shocked, the rats can escape the electricity by jumping onto the platform. The shocked times (mistakes) within 5 minutes were recorded as a reference for the learning ability of the rats. After 24 hours, the rats were placed directly on the platform. The latency time for the first jump was recorded as a reference for the memory ability. The shocked times (mistakes) within 5 minutes were also recorded. The latency time of over 5 minutes was considered as 5 minutes.
T testing method was used to evaluate the difference within different groups, and the difference was statistically significant when P<0.05. • 4. […] P represents statistic difference. *P<0.05 means statistically obvious difference, **P<0.01 statistically significant difference.

[1] = tested on: AChE activity in cortex tissue and blood; settings: model rats, intragastric 50 μg/kg, 7 days; mean ± SD
Method: as §1, with “Measurement: testing the memory ability of rats: the rats were placed in an electric box with an escaping platform for 3 minutes to get used to the new environments. The box was then connected to 50V AC. Upon being shocked, the rats can escape the electricity by jumping onto the platform.” left out, “After 24 hours, the rats were placed directly on the platform.” left out, “The latency time of over 5 minutes was considered as 5 minutes.” left out

C/C=C1\[C@H]2C=C(C)C[C@]1(N)c1ccc(=O)[nH]c1C2 [Huperzine A, huperzine A]
Latency (rats; after 24 hours): 135 ± 55* s | Mistakes within 5 min (rats): 4 ± 2.3* | Mistakes within 5 min after 24 hours (rats): 2 ± 1.6* | Blood TchE [1]: 48 ± 35* mmol/L | Cortex TchE [1]: 2.0 ± 0.6* μmol/g
